Assay results: PubChem BioAssay (NCI)
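Cultured in 96-well plates, cells were exposed to test compound for 48 hours across five concentrations. GI50 = concentration required for 50% inhibition of growth. Definition used: TGI = concentration required for complete inhibition of growth.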

Tests used:
Test in all cases: NCI tumour cell line growth inhibition, 48 h
[1] = tested on: SF-295 CNS
[2] = tested on: HCT-15 colon
[3] = tested on: TK-10 renal
[4] = tested on: UACC-62 melanoma
[5] = tested on: RXF 393 renal
[6] = tested on: HCT-116 colon
[7] = tested on: EKVX NSCLC
[8] = tested on: A498 renal
[9] = tested on: M14 melanoma
[10] = tested on: MOLT-4 leukemia
[11] = tested on: ACHN renal
[12] = tested on: U251 CNS
[13] = tested on: MALME-3M melanoma
[14] = tested on: OVCAR-8 ovarian
[15] = tested on: CAKI-1 renal
[16] = tested on: SK-MEL-5 melanoma
[17] = tested on: IGROV1 ovarian
[18] = tested on: T-47D breast
[19] = tested on: SW-620 colon
[20] = tested on: NCI-H23 lung
[21] = tested on: COLO 205 colon
[22] = tested on: SNB-19 CNS
[23] = tested on: K-562 leukemia
[24] = tested on: HT29 colon
[25] = tested on: MCF7 breast
[26] = tested on: LOX IMVI melanoma
[27] = tested on: A549 NSCLC
[28] = tested on: SN12C renal
[29] = tested on: NCI/ADR-RES ovarian
[30] = tested on: NCI-H522 lung
[31] = tested on: DU-145 prostate
[32] = tested on: HS 578T breast
[33] = tested on: SNB-75 CNS
[34] = tested on: OVCAR-3 ovarian
[35] = tested on: HCC-2998 colon
[36] = tested on: SF-539 CNS
[37] = tested on: OVCAR-5 ovarian
[38] = tested on: NCI-H460 lung
[39] = tested on: SK-MEL-28 melanoma
[40] = tested on: OVCAR-4 ovarian
[41] = tested on: HOP-92 NSCLC
[42] = tested on: NCI-H226 lung
[43] = tested on: SF-268 CNS
[44] = tested on: SK-OV-3 ovarian
[45] = tested on: RPMI-8226 leukemia
[46] = tested on: SR leukemia
[47] = tested on: UACC-257 melanoma
[48] = tested on: 786-0 renal
[49] = tested on: UO-31 renal
[50] = tested on: CCRF-CEM leukemia
[51] = tested on: PC-3 prostate
[52] = tested on: BT-549 breast
[53] = tested on: SK-MEL-2 melanoma
[54] = tested on: KM12 colon
[55] = tested on: MDA-MB-231 breast
[56] = tested on: HOP-62 NSCLC
[57] = tested on: MDA-MB-435
[58] = tested on: HL-60(TB) leukemia

In the case of `C#Cc1c(I)n(C2OC(CO[Si](C)(C)C(C)(C)C)C3OC(C)(C)OC32)c(=O)[nH]c1=O` (stereo not drawn), the GI50 [1] is reported as 28.4 µM, the TGI [1] is reported as 98.7 µM and the GI50 [2] is reported as 4.09 µM. The TGI [2] was over 100 µM, the GI50 [3] was 11.2 µM and the TGI [3] was 26.5 µM. The GI50 [4] was 17.9 µM, the TGI [4] was 33.7 µM and the GI50 [5] was 3.68 µM. It also gave a TGI [5] of 14.2 µM, a GI50 [6] of 2.78 µM and a TGI [6] of 10.1 µM. It also gave a GI50 [7] of 20.6 µM, a TGI [7] of 52.3 µM and a GI50 [8] of 17.1 µM. For the same molecule, the TGI [8] was 35.7 µM, the GI50 [9] was 16.3 µM and the TGI [9] was 33.3 µM. For the same molecule, the GI50 [10] was 2.17 µM, the TGI [10] was 6.69 µM and the GI50 [11] was 17.8 µM. It also gave a TGI [11] of 39.7 µM, a GI50 [12] of 19.5 µM and a TGI [12] of 65.8 µM. The GI50 [13] was 2.41 µM, the TGI [13] was 6.59 µM and the GI50 [14] was 12.1 µM. For the same molecule, the TGI [14] was 27.8 µM, the GI50 [15] was 11.6 µM and the TGI [15] was 24.8 µM. For the same molecule, the GI50 [16] was 13.1 µM, the TGI [16] was 27.1 µM and the GI50 [17] was 4.46 µM. The TGI [17] was 19.1 µM, the GI50 [18] was 5.42 µM and the TGI [18] was 28 µM. The GI50 [19] was 2.36 µM, the TGI [19] was 6.42 µM and the GI50 [20] was 18.9 µM. The TGI [20] was 39.6 µM, the GI50 [21] was 2.24 µM and the TGI [21] was 4.8 µM. It also gave a GI50 [22] of 24.1 µM, a TGI [22] of 78.8 µM and a GI50 [23] of 2.08 µM. The TGI [23] was 5.37 µM, the GI50 [24] was 19.2 µM and the TGI [24] was 52.2 µM. The GI50 [25] was 16.6 µM, the TGI [25] was 50 µM and the GI50 [26] was 3.42 µM. For the same molecule, the TGI [26] was 18.5 µM, the GI50 [27] was 49.6 µM and the TGI [27] was over 100 µM. It also gave a GI50 [28] of 18.5 µM, a TGI [28] of 37.6 µM and a GI50 [29] of 23.5 µM. It also gave a TGI [29] of 59.1 µM, a GI50 [30] of 1.72 µM and a TGI [30] of 3.52 µM. It also gave a GI50 [31] of 4.57 µM, a TGI [31] of 19.4 µM and a GI50 [32] of 19.7 µM. The TGI [32] was 66.8 µM, the GI50 [33] was 14.4 µM and the TGI [33] was 29.4 µM. It also gave a GI50 [34] of 1.65 µM, a TGI [34] of 3.56 µM and a GI50 [35] of 2.36 µM. For the same molecule, the TGI [35] was 6.38 µM, the GI50 [36] was 16.6 µM and the TGI [36] was 31.4 µM. The GI50 [37] was 20.4 µM, the TGI [37] was 37 µM and the GI50 [38] was 20 µM. For the same molecule, the TGI [38] was 40.4 µM, the GI50 [39] was 2 µM and the TGI [39] was 4.43 µM. The GI50 [40] was 17.8 µM, the TGI [40] was 37.6 µM and the GI50 [41] was 12.4 µM. It also gave a TGI [41] of 26.1 µM, a GI50 [42] of 17.7 µM and a TGI [42] of 32.5 µM. It also gave a GI50 [43] of 12.3 µM, a TGI [43] of 27.8 µM and a GI50 [44] of 33.2 µM. It also gave a TGI [44] of over 100 µM, a GI50 [45] of 3.63 µM and a TGI [45] of 13.7 µM. For the same molecule, the GI50 [46] was 2.62 µM, the TGI [46] was 12.8 µM and the GI50 [47] was 15.2 µM. It also gave a TGI [47] of 29.8 µM, a GI50 [48] of 14.7 µM and a TGI [48] of 29.4 µM. It also gave a GI50 [49] of 1.99 µM, a TGI [49] of 5.49 µM and a GI50 [50] of 4 µM. It also gave a TGI [50] of 11.9 µM, a GI50 [51] of 1.72 µM and a TGI [51] of 4.27 µM. The GI50 [52] was 16.4 µM, the TGI [52] was 31.2 µM and the GI50 [53] was 5.35 µM. The TGI [53] was 26.1 µM, the GI50 [54] was 16.9 µM and the TGI [54] was 35.6 µM. It also gave a GI50 [55] of 5.24 µM, a TGI [55] of 19.9 µM and a GI50 [56] of 20 µM. It also gave a TGI [56] of 38.4 µM, a GI50 [57] of 15 µM and a TGI [57] of 31 µM.

`Cc1cc(C(C)(C)CC(C)(C)C)ccc1OCCOCC[N+](C)(C)Cc1ccccc1` showed a GI50 [2] of 9.8 µM, a TGI [2] of 44 µM and a GI50 [4] of 0.967 µM. The TGI [4] was 2.21 µM, the GI50 [7] was 1.55 µM and the TGI [7] was 4.07 µM. The GI50 [11] was 3.19 µM, the TGI [11] was 11.3 µM and the GI50 [15] was 10.4 µM. It also gave a TGI [15] of 39 µM, a GI50 [18] of 0.388 µM and a TGI [18] of 1.81 µM. The GI50 [21] was 1.25 µM, the TGI [21] was 2.64 µM and the GI50 [29] was 15.3 µM. The TGI [29] was 51 µM, the GI50 [31] was 1.66 µM and the TGI [31] was 3.13 µM. It also gave a GI50 [32] of 1.86 µM, a TGI [32] of 5.16 µM and a GI50 [58] of 0.436 µM. It also gave a TGI [58] of 1.62 µM, a GI50 [37] of 1.71 µM and a TGI [37] of 3.45 µM. For the same molecule, the GI50 [41] was 1.03 µM, the TGI [41] was 2.46 µM and the GI50 [44] was 1.44 µM. The TGI [44] was 2.78 µM, the GI50 [49] was 2.25 µM and the TGI [49] was 6.65 µM. It also gave a GI50 [55] of 1.33 µM, a TGI [55] of 2.75 µM and a GI50 [56] of 1.44 µM. For the same molecule, the TGI [56] was 2.84 µM.
